The target in data set [1] is T1, PAP (polyphosphate:AMP phosphotransferase) (Acinetobacter johnsonii, UniProt Q83XD3).
T1 construct: the PAP gene codes for the polypeptide (molecular weight: 55.8 kd) comprising 475 amino acids; made in house; host or cells: E. coli JM109 carrying plasmid pPAP2
Kind of data set: Synthesis of NDP from NMP with PAP and polyphosphate, HPLC analysis. It counts as biochemical. The following applies: 10 mM NMP, polyphosphate 30 mM, PAP 16 units/ml, 37° C., 30 minutes.

The target of data set [2] is T1, PAP (polyphosphate:AMP phosphotransferase). Nature of the data set: Substrate specificity of PAP: NDP or dNDP produced from NMP or dNMP, measured by HPLC. The format is biochemical. Particulars: relative to phosphorylation of AMP = 100%; 5 mM NMP or dNMP, polyphosphate 10 mM, 100 mM MgCl2, pH 8.0, 37° C., 10 minutes. As to the method:
To 50 mM Tris HCl buffer solution (pH 8.0) containing 100 mM MgCl2, polyphosphate (10 mM calculated in terms of inorganic phosphate), and 5 mM of various NMP or dNMP was added PAP at various concentration, and the solution was incubate at 37° C. for 10 minutes. The reaction was terminated by heat treatment at 100° C. for 1 minute, and the solution after the reaction was subjected to HPLC to measure the amount of the NDP or the dNDP produced. The specific activity of each NMP or dNMP is shown in Table 1 as a relative value in relation to the specific activity of the PAP in the phosphorylation of the AMP, which is assumed 100%.

In data set [3] the test system is PAP from Acinetobacter johnsonii. Particulars: PAP obtained from Acinetobacter johnsonii, reported as AMP-specific; cited from earlier work.
Data set [4] in a line: Adenylate kinase activity measurement (ADP from AMP and ATP, HPLC). The format is biochemical. The following applies: cell extract; 1 unit = 2 μmole ADP at 37° C. in 1 minute. Here is the method: The unit of the adenylate kinase activity is the one measured and calculated by the procedure as described below. Sample enzyme is added the 50 mM Tris HCl buffer solution (pH 7.8) containing 10 mM magnesium chloride, 10 mM AMP, and 10 mM ATP, and the solution is incubated at 37° C. to promote the reaction, and the reaction is terminated by a 1 minute heating at 100° C. Amount of the ADP in the reaction solution is measured by using HPLC, and the activity of producing 2 μmole of ADP at 37° C. in 1 minute is designated 1 unit.
E. coli adenylate kinase was prepared by the procedure described in the document (Proc. Natl. Acad. Sci. USA, 97, 14168-14171 (2000)). However, the cell extract produced by ultrasonication was used for the enzyme solution, and the specific activity of the adenylate kinase in the enzyme solution was 12.5 units/mg protein.

The nature of the next data set: Optimal pH of PAP. It counts as biochemical. Particulars: 37° C., 10 minutes, 5 mM AMP, polyphosphate 10 mM, 100 mM magnesium chloride. Here is the method:
The reaction was allowed to proceed in either 50 mM maleate or 50 mM Tris HCl buffer solution of various pH at 37° C. for 10 minutes in the presence of 100 mM magnesium chloride, polyphosphate (10 mM calculated in terms of inorganic phosphate), and 5 mM AMP to measure the amount of the ADP produced by HPLC.

Data set [5] can be described thus: Thermal stability of PAP (residual activity). It counts as physicochemical. Particulars: 10 minutes, pH 8.0, in the presence of the polyphosphate. As to the method: PAP was incubated for 10 minutes in 50 mM Tris HCl buffer solution (pH 8.0) containing 100 mM magnesium chloride in the presence or absence of polyphosphate (10 mM calculated in terms of inorganic phosphate) in the bath at various temperatures to measure the residual activity by the procedure as described above.

A short description of data set [6]: pH stability of PAP (residual activity). It counts as physicochemical. The following applies: pH in the range of 7 to 9; activity at pH 8 = 100%; 37° C., 10 minutes, 100 mM magnesium chloride. As to the method:
PAP was incubated in either 50 mM maleate or 50 mM Tris HCl buffer solution of various pH at 37° C. for 10 minutes in the presence of 100 mM magnesium chloride to measure the residual activity. The residual activity was measured by allowing the reaction to take place at 37° C. for 10 minutes in the presence of 50 mM Tris buffer solution (pH 8.0), 100 mM magnesium chloride, 5 mM AMP, and polyphosphate (10 mM calculated in terms of inorganic phosphate), and measuring the resulting ADP by HPLC.

A short description of data set [7]: PAP activity measurement (ADP produced from AMP and polyphosphate, HPLC). It counts as biochemical. The following applies: partially purified by DEAE TOYOPEARL 650M; 1 unit = 1 μmole ADP at 37° C. in 1 minute. As to the method:
The “unit” used herein is the unit measured under the following conditions, and 1 unit corresponds to the activity of producing 1 μmole of ADP at 37° C. in 1 minute.
Sample enzyme is added to 50 mM Tris HCl buffer solution (pH 7.8) containing 20 mM magnesium chloride, 10 mM AMP, and polyphosphate (30 mM calculated in terms of inorganic phosphate) and the reaction is allowed to proceed by incubating the temperature at 37° C., and the reaction is thereafter terminated by a heat treatment at 100° C. for 1 minute, and amount of ADP in the reaction solution is measured by high performance liquid chromatography (HPLC).
It is to be noted that this productivity corresponds to about 150 times the productivity of the Acinetobacter Johnsonii. PAP was partially purified by fractionating the extract by ion exchange chromatography using DEAE TOYOPEARL 650M (TOSO) (eluent: 50 mM Tris HCl (pH 7.8), concentration gradient of 0 to 0.5M NaCl), and the collected fraction was used for the enzyme sample. The specific activity of the PAP in the collected fraction was 80.5 units/mg protein.

Data set [8] is described as follows: Galactokinase activity measurement (galactose-1-phosphate produced, sugar analyzer). The format is biochemical. The following applies: partially purified; 1 unit = 1 μmole galactose-1-phosphate at 37° C. in 1 minute. As to the method:
E. coli strain JM109 having the plasmid pDR540 containing E. coli galactokinase gene (Gene, 20, 231(1982), obtained from Pharmacia) was inoculated in 2xYT medium containing 100 μg/ml ampicillin, and the E. coli was cultivated at 37° C. with shaking. When the cell density reached 4×10^8/ml, IPTG was added to the culture medium to a final concentration of 1 mM, and the incubation was continued at 30° C. for another 5 hours. After completion of the cultivation, the cells were collected by centrifugation and suspended in 30 ml buffer solution (50 mM Tris HCl (pH 7.8), 1 mM EDTA). The cells were lyzed by ultrasonication, and bacterial residue was removed by further centrifugation. The solution collected was subjected to ion exchange chromatography using DEAE Toyopearl 650M (Toso) (eluent: 50 mM Tris HCl (pH 7.8), concentration gradient of 0 to 0.5M NaCl) for fractionation and partial purification of the galactokinase. The thus recovered fraction was used for the enzyme solution of galactokinase. […]
The unit of the glactokinase activity was the one measured and calculated by the procedure as described below. […] Amount of the galactose-1-phosphate in the reaction solution was measured by using a sugar analyzer (Dionex), and the activity of producing 1 μmole of galactose-1-phosphate at 37° C. in 1 minute was designated 1 unit.

We go through eleven molecules from patent US7329522B2, “Polyphosphate:AMP phosphotransferase” (Yamasa Corporation, priority 2002, dated 2008).

In data set [1], `Nc1ncnc2c1ncn2[C@@H]1O[C@H](COP(=O)(O)O)[C@@H](O)[C@H]1O` [AMP, adenosine 5′-monophosphate] showed an NDP generated of 6.76 mM ADP. The “Specific activity (relative value)” value in data set [2] is 100%.

As for `Nc1ccn([C@@H]2O[C@H](COP(=O)(O)O)[C@@H](O)[C@H]2O)c(=O)n1` [CMP], in data set [1], the NDP generated is 0.98 mM CDP. Also, in data set [2], the “Specific activity (relative value)” value was 0.09%. Besides, the “phosphate-transfer by conventional PAP” value in data set [3] is recorded as “no phosphotransfer at all”.

In turn, `Nc1nc2c(ncn2[C@@H]2O[C@H](COP(=O)(O)O)[C@@H](O)[C@H]2O)c(=O)[nH]1` [GMP] returned an NDP generated in [1] of 7.16 mM GDP. The “Specific activity (relative value)” value in data set [2] is reported as 10%. Further, the “phosphate-transfer by conventional PAP” value in data set [3] was “some phosphate-transfer”. For `Cc1cn([C@H]2C[C@H](O)[C@@H](COP(=O)(O)O)O2)c(=O)[nH]c1=O` [TMP], the “Specific activity (relative value)” value in data set [2] was 0.012%. In data set [1], `O=c1ccn([C@@H]2O[C@H](COP(=O)(O)O)[C@@H](O)[C@H]2O)c(=O)[nH]1` [UMP] displayed an NDP generated of 0.85 mM UDP. Moreover, the “Specific activity (relative value)” value in data set [2] was 0.13%. Also, the “phosphate-transfer by conventional PAP” value in [3] is recorded as “no phosphotransfer at all”. On to `Nc1ncnc2c1ncn2[C@H]1C[C@H](O)[C@@H](COP(=O)(O)O)O1` [dAMP], for which the “Specific activity (relative value)” value in data set [2] came to 18%. Same read-out and setting: to `Nc1ccn([C@H]2C[C@H](O)[C@@H](COP(=O)(O)O)O2)c(=O)n1` [dCMP] belongs 0.008%; to `Nc1nc2c(ncn2[C@H]2C[C@H](O)[C@@H](COP(=O)(O)O)O2)c(=O)[nH]1` [dGMP], 2.6%. With “adenylate kinase: E. coli adenylate kinase, cell extract used as enzyme solution”, the “specific activity of the adenylate kinase in the enzyme solution” value in data set [4] turned out to be 12.5 units/mg protein.

B1: polyphosphate:AMP phosphotransferase (protein, listed as Acinetobacter jobnsonii)
chain: MDTETIASAVLNEEQLSLDLIEAQYALMNTRDQSNAKSLVILVSGIELAGKGEAVKQLREWVDPRFLYVKADPPHLFNLKQPFWQPYTRFVPAEGQIMVWFGNWYGDLLATAMHASKPLDDTLFDEYVSNMRAFEQDLKNNNVDVLKVWFDLSWKSLQKRLDDMDPSEVHWHKLHGLDWRNKKQYDTLQKLRTRFTDDWQIIDGEDEDLRNHNFAQAILTALRHCPEHEKKAALKWQQAPIPDILTQFEVPQAEDANYKSELKKLTKQVADAMRCDDRKVVIAFEGMDAAGKGGAIKRIVKKLDPREYEIHTIAAPEKYELRRPYLWRFWSKLQSDDITIFDRTWYGRVLVERVEGFATEVEWQRAYAEINRFEKNLSSSQTVLIKFWLAIDKDEQAARFKARESTPHKRFKITEEDWRNRDKWDDYLKAAADMFAHTDTSYAPWYIISTNDKQQARIEVLRAILKQLKADRDTD
B1: the “optimal pH” value in “Optimal pH of PAP” is listed as “approximately 8.5”. In addition, the “thermal stability: stable up to” value in data set [5] is “approximately 50 °C”. In addition, in data set [6], the “enzymatic activity (residual) after incubation at various pH” value is not below 80%. For the same molecule, the “specific activity of the PAP in the collected fraction” value in data set [7] turned out to be 80.5 units/mg protein.

B2: galactokinase: E. coli galactokinase, partially purified enzyme solution (protein, UniProt P0A6T3 2-382, looked up)
Galactokinase: SLKEKTQSLFANAFGYPATHTIQAPGRVNLIGEHTDYNDGFVLPCAIDYQTVISCAPRDDRKVRVMAADYENQLDEFSLDAPIVAHENYQWANYVRGVVKHLQLRNNSFGGVDMVISGNVPQGAGLSSSASLEVAVGTVLQQLYHLPLDGAQIALNGQEAENQFVGCNCGIMDQLISALGKKDHALLIDCRSLGTKAVSMPKGVAVVIINSNFKRTLVGSEYNTRREQCETGARFFQQPALRDVTIEEFNAVAHELDPIVAKRVRHILTENARTVEAASALEQGDLKRMGELMAESHASMRDDFEITVPQIDTLVEIVKAVIGDKGGVRMTGGGFGGCIVALIPEELVPAVQQAVAEQYEAKTGIKETFYVCKPSQGAGQC
Turning to B2, in data set [8], the “specific activity of the galactokinase in the enzyme solution” value was found to be 6.5 units/mg protein.
